Calls of active or inactive are those of the source.
Columns and labels:
Interleukin-8 [1] = target: T1, Interleukin-8 (Homo sapiens, UniProt P10145); assay: Dose Response confirmation of uHTS small molecule hits for cystic fibrosis induced NFkb Inhibitors in a TNFa-induced IL8 counterscreen.; type: functional; conditions: read-out: IC50_Mean
T1 sequence (P10145 whole entry): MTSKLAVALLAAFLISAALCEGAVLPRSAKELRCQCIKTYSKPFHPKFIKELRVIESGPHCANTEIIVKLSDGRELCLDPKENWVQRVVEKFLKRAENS

Interleukin-8 [2] = target: T1, Interleukin-8; assay: Dose Response confirmation of uHTS small molecule hits for cystic fibrosis induced NFkb Inhibitors in a PAF-induced IL8 counterscreen.; type: functional; conditions: read-out: IC50_Mean
[3] = target: Adenosylmethionine-8-amino-7-oxononanoate aminotransferase (Mycobacterium tuberculosis, UniProt P9WQ81); assay: Mycobacterium tuberculosis BioA enzyme inhibitor Measured in Biochemical System Using Plate Reader - 2163-02_Inhibitor_Dose_CherryPick_Activity.; type: functional, Mycobacterium tuberculosis UT205
Sequence of Adenosylmethionine-8-amino-7-oxononanoate aminotransferase (P9WQ81 whole entry): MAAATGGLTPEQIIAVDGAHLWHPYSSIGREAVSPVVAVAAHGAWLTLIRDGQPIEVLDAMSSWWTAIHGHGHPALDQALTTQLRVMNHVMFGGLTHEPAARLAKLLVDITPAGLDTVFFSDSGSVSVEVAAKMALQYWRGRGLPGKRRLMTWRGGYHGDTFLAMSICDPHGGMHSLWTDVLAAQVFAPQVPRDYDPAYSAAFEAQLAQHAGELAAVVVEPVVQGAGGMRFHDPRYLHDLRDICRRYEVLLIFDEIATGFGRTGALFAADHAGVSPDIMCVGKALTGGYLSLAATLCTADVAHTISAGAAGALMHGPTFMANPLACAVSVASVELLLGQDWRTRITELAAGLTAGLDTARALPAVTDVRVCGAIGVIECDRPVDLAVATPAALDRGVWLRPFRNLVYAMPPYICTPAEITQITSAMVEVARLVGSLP

[4] = target: T2, Heat shock factor protein 1 (Mus musculus, UniProt P38532); assay: inhibition of MG132-induced HSE-luciferase signal, confirmation, cell-based, NIH3T3, luminescence, dose retest (AID 2382); type: functional;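 further: NIH3T3 fibroblasts with HSF1-driven luciferase reporter stressed by proteasome inhibitor MG132; luminescence from HSF1-driven luciferase expression after 8 hours of MG132 stress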
T2 sequence (P38532 whole entry): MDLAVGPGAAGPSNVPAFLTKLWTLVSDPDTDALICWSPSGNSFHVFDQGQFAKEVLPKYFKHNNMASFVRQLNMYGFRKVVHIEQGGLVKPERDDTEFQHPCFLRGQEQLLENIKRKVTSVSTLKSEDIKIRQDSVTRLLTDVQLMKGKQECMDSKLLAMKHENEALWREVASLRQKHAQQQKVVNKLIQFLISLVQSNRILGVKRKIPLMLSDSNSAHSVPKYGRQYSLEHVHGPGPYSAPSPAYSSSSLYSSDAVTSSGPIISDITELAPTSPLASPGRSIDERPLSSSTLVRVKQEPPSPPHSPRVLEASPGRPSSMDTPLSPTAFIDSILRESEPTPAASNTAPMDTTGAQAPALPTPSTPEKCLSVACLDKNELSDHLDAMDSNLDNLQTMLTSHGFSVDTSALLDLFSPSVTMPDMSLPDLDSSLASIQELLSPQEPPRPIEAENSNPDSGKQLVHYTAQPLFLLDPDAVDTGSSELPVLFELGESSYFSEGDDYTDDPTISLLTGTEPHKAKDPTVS

[5] = target: Ras and Rab interactor 1/Tyrosine-protein kinase ABL1 (Homo sapiens, UniProt P00519+Q13671); type: functional;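 further: biochemical TR-FRET dose-response test measuring inhibition of binding between Rin1 and Abl proteins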
[6] = target: T3, Corticotropin-releasing factor receptor 2/Corticotropin-releasing factor-binding protein (Homo sapiens, UniProt P24387+Q13324); assay: activators of CRF receptor 2 with binding protein – uHTS hits, confirmation (AID 602473); type: functional; conditions: read-out: EC50_Mean
T3 sequence (Q13324 whole entry): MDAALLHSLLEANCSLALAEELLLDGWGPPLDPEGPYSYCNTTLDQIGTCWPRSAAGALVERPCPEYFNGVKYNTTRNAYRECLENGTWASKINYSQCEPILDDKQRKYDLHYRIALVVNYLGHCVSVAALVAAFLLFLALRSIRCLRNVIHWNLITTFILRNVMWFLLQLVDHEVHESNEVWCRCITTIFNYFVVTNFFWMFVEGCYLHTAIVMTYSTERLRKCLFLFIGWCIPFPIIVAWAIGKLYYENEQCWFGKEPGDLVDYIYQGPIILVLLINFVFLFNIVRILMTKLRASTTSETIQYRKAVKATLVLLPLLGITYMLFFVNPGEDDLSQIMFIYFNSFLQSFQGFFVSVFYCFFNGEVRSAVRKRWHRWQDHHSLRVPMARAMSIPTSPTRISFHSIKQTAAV
T3 sequence (P24387 whole entry): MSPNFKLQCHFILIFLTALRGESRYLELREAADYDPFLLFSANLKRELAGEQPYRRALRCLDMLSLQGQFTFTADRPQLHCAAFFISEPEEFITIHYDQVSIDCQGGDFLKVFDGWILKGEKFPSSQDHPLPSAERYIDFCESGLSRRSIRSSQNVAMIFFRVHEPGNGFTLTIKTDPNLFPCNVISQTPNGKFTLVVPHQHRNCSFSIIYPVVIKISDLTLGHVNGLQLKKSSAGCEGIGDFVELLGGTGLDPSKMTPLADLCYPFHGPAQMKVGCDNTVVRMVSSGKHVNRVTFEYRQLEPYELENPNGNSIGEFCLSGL

[7] = target: T3, Corticotropin-releasing factor receptor 2/Corticotropin-releasing factor-binding protein; assay: Dose Response confirmation of uHTS hits for small molecule antagonists of the CRF-binding protein and CRF-R2 receptor complex.; type: functional; conditions: read-out: IC50_Mean
[8] = CRF-BP/CRF-R2 complex antagonists, dose response, cell-based, uHTS hits, 384-well (AID 651639); type: functional, Homo sapiens; conditions: read-out: IC50_Mean
[9] = Luminescence Cell-Based Dose Retest to Confirm Inhibitors of Cancer Stem Cells. [Related pubchem assays (depositor defined):AID2717, AID2721]; type: functional; conditions: Homo sapiens
[10] = target: T4, Rac GTPase-activating protein 1 (Homo sapiens, UniProt Q9H0H5); assay: MgcRacGAP GTPase-activating activity inhibitors, confirmation, biochemical, ADP Hunter fluorescence, primary and confirmatory (AID 624330); type: functional
T4 sequence (Q9H0H5 whole entry): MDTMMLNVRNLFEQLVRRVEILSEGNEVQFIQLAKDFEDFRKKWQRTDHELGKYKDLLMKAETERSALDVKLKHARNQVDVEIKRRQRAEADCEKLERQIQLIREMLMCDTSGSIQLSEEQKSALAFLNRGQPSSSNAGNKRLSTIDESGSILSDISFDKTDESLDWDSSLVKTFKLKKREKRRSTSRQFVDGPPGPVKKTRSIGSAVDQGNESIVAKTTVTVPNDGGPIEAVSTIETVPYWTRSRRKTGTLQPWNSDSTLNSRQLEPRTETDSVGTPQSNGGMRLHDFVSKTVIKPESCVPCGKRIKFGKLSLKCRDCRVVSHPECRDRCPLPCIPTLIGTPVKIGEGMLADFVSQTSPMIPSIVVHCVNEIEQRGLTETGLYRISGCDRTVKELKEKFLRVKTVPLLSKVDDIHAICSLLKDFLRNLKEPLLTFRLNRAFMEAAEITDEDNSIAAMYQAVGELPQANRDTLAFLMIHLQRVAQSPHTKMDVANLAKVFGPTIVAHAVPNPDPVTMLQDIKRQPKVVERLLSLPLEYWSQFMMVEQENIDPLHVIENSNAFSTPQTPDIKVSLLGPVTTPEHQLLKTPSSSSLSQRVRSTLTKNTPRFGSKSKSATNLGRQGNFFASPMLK

[11] = target: T5, High affinity choline transporter 1 (Homo sapiens, UniProt Q9GZV3); assay: CHT inhibitors, dose response, cell-based, 5-point CRC, membrane potential dye (AID 504840); type: functional
T5 sequence (Q9GZV3 whole entry): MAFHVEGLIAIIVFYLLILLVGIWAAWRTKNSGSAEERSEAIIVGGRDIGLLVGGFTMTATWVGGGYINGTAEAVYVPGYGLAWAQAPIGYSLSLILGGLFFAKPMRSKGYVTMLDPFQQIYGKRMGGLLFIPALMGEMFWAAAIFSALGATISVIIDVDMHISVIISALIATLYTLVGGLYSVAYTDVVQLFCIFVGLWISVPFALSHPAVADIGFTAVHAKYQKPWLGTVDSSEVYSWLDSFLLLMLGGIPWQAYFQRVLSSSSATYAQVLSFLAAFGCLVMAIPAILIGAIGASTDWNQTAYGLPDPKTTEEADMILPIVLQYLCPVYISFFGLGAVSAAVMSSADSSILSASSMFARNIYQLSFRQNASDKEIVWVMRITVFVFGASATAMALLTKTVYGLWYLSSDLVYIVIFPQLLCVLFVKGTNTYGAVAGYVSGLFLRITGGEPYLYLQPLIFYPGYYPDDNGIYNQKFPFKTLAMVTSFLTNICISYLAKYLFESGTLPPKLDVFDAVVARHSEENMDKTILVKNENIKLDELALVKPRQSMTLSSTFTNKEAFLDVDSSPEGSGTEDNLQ

[12] = cytotoxicity toward NIH3T3 fibroblasts, dose response, counter-screen, cell-based, ATP luminescence, mouse fibroblasts (AID 2010); type: functional;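 further: cells exposed to compound for about 90 hours before reading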
[13] = HeLa cell cytotoxicity, dose response, cytotoxicity control for MgcRacGAP inhibitor project (AID 624300); type: functional
[14] = inhibitors of intracellular T. cruzi replication, confirmation, NIH3T3 host cells, beta-gal luminescence (AID 2044); type: functional, cell-based;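 further: intracellular parasites grown in NIH/3T3 mouse fibroblasts as host cells; luminescent beta-galactosidase reporter signal from transgenic T. cruzi replicating inside host cells; inhibitors lower the luminescence signal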
[15] = target: Tyrosine-protein phosphatase non-receptor type 5 (Homo sapiens, UniProt P54829); assay: STEP phosphatase inhibitors, confirmation, biochemical, fluorescence intensity, uHTS hits (AID 602372); type: functional; conditions: read-out: IC50_Mean
Sequence of Tyrosine-protein phosphatase non-receptor type 5 (P54829 whole entry): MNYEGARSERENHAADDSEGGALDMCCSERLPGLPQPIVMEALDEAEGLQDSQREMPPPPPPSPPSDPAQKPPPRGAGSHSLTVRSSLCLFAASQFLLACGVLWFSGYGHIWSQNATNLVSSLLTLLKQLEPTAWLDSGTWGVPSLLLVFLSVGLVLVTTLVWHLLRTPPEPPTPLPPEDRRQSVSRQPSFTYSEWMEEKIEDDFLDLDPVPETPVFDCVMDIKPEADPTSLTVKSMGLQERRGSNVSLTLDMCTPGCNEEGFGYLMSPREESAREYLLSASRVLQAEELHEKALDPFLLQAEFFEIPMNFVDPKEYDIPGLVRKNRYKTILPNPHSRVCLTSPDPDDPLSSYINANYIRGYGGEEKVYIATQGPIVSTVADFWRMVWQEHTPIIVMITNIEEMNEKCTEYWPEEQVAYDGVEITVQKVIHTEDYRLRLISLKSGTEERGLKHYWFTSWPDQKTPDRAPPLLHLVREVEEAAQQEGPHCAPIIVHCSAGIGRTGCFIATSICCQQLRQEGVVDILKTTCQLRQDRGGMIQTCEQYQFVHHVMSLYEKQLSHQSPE

[16] = target: Tyrosine-protein phosphatase non-receptor type 11 (Homo sapiens, UniProt Q06124); assay: SHP2 phosphatase inhibition, dose response, selectivity assay for STEP inhibitor project, biochemical (AID 602367); type: functional; conditions: read-out: IC50_Mean
Sequence of Tyrosine-protein phosphatase non-receptor type 11 (Q06124 whole entry): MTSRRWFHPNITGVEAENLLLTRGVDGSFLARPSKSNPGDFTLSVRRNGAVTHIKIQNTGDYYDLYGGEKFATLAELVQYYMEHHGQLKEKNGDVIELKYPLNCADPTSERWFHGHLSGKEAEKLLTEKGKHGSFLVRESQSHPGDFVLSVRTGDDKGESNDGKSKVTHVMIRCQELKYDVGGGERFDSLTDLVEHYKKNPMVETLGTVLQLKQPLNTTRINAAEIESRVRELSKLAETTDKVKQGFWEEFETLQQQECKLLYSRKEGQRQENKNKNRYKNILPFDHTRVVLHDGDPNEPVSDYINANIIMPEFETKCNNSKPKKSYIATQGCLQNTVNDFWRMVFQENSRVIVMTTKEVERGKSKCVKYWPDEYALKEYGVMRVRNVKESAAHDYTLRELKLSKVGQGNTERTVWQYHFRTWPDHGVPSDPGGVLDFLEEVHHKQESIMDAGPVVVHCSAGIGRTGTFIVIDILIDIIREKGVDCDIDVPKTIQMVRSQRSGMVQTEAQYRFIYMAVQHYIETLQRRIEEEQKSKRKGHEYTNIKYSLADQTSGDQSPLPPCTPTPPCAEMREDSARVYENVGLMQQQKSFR

[17] = target: Dual specificity protein phosphatase 3 (Homo sapiens, UniProt P51452); assay: VHR phosphatase inhibition, dose response, selectivity assay for STEP inhibitor project, biochemical (AID 602374); type: functional; conditions: read-out: IC50_Mean
Sequence of Dual specificity protein phosphatase 3 (P51452 whole entry): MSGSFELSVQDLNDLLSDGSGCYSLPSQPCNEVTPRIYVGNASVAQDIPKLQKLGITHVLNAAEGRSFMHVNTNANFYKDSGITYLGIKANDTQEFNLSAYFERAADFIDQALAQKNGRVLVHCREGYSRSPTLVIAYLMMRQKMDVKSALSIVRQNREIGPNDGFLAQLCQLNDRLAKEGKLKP

[18] = target: ATP-dependent translocase ABCB1 (Homo sapiens, UniProt P08183); assay: ABCB1 efflux pump inhibitor potency, dose response, Jurkat-DNR cells, JC-1, flow cytometry (AID 1689); type: functional
Sequence of ATP-dependent translocase ABCB1 (P08183 whole entry): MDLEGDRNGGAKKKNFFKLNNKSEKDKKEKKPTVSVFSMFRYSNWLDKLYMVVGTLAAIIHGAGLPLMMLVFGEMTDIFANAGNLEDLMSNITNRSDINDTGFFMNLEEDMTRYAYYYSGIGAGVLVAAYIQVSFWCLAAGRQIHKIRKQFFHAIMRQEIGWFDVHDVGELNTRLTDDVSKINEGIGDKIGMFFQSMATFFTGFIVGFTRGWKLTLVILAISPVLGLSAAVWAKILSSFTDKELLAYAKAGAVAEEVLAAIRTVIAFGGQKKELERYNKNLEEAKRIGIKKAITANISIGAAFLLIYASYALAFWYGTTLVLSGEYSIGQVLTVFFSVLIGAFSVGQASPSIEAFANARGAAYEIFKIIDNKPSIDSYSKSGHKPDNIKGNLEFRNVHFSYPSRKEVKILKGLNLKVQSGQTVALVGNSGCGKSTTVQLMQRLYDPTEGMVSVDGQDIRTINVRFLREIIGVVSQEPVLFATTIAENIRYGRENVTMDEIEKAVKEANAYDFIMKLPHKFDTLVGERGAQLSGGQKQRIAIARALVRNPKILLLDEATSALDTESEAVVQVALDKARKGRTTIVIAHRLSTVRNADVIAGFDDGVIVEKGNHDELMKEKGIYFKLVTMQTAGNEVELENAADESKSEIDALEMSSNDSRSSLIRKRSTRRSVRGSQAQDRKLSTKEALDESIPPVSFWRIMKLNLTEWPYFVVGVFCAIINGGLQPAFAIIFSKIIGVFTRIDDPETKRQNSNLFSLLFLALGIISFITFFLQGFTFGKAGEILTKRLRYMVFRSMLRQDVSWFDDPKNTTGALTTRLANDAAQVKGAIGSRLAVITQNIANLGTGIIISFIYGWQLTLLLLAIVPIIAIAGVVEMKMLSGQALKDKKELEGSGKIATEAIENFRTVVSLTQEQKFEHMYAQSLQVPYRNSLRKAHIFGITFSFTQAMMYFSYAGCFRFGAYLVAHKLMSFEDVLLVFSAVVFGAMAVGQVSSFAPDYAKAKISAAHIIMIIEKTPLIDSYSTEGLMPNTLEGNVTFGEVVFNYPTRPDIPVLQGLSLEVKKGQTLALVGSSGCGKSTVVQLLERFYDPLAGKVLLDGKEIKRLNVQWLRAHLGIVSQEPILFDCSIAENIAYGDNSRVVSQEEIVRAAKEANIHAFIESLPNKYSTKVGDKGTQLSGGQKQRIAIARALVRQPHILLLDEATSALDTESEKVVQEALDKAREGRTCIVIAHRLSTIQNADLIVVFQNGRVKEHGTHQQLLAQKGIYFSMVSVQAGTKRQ

[19] = target: Broad substrate specificity ATP-binding cassette transporter ABCG2 (Homo sapiens, UniProt Q9UNQ0); assay: ABCG2 efflux pump inhibitors, dose response, Ig-MXP3 cells, flow cytometry (AID 1690); type: functional
Sequence of Broad substrate specificity ATP-binding cassette transporter ABCG2 (Q9UNQ0 whole entry): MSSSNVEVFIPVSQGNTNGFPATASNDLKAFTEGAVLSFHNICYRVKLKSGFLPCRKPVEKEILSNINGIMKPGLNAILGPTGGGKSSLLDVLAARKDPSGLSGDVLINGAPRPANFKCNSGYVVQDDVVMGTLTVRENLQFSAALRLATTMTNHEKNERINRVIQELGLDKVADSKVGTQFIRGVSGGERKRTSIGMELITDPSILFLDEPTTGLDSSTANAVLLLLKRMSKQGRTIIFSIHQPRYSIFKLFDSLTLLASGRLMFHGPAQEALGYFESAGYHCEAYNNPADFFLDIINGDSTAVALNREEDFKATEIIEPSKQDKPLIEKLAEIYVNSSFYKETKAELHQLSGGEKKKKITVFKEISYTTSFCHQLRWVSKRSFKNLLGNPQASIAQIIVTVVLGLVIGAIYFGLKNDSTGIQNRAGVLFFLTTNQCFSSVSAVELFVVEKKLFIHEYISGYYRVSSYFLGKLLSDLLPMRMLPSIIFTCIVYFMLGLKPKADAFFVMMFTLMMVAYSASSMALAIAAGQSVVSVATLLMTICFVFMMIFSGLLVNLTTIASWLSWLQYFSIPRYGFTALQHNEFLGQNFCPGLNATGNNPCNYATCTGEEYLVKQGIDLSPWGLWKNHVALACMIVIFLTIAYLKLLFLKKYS

[20] = target: Mitochondrial peptide methionine sulfoxide reductase (Bos taurus, UniProt P54149); type: functional;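 further: absorbance read-out, biochemical high-throughput dose-response screen for MsrA inhibitors, confirmatory; recombinant bovine MsrA coupled to E. coli TrxB with NADPH and selenocystamine; potency is for inhibitors of MsrA activity on DMSO substrate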
Sequence of Mitochondrial peptide methionine sulfoxide reductase (P54149 whole entry): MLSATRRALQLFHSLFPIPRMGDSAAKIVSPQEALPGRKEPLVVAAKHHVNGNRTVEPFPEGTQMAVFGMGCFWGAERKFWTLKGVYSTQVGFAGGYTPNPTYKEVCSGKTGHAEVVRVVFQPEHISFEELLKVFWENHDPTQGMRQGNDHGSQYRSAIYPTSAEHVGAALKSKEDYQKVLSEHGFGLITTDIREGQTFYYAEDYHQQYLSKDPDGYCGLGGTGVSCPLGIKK

[21] = target: T2, Heat shock factor protein 1; assay: HSF1 potentiators in luciferase reporter cells, confirmation, cell-based, NIH3T3, luminescence, dose retest (AID 435004); type: functional;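 further: stress induced by proteasome inhibitor MG132 added 30 min after compound; luciferase reporter driven by HSF1 response element in NIH3T3 cells; actives raise luminescence as potentiators of the MG132 stress response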
[22] = target: T6, Calpain-2 catalytic subunit (Sus scrofa, UniProt P43367); assay: pig calpain II inhibitor potency, dose response, biochemical, fluorogenic peptide substrate (AID 1420); type: functional
T6 sequence (P43367 whole entry): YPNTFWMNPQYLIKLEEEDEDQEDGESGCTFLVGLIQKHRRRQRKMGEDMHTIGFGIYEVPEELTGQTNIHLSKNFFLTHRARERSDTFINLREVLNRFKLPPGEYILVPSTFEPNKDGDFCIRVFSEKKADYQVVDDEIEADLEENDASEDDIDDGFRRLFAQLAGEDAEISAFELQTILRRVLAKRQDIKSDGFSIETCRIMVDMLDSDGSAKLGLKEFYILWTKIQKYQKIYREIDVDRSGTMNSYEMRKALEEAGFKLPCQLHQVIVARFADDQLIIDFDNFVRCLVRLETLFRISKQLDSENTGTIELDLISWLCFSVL

CCn1c(Oc2ccccc2F)nc2c1c(=O)n(C)c(=O)n2C
IC50 (Interleukin-8 [1]): 4.08 µM (active)
IC50 (Interleukin-8 [2]): 21 µM (inactive)

COCCN1C(=O)c2ccc(C(=O)Nc3cccnc3)cc2C1=O
AC50 [3]: 4.26 µM (active)

CCCn1c2ccccc2c2nnc(SCc3[nH]c(O)nc3C(=O)CCCCC(=O)OCC)nc21
EC50 [4]: > 195 µM (not active)
IC50 [5]: 3.23 µM (active)

CC(=O)c1cccc(NC(=O)Nc2cccnc2)c1
IC50 (Interleukin-8 [1]): 43.8 µM (inactive)
IC50 (Interleukin-8 [2]): 45.7 µM (inactive)

Cc1ccc(CSCC(=O)Nc2cc(S(=O)(=O)N3CCOCC3)ccc2OC(C)C)cc1
EC50 [6]: > 53 µM (inactive)
IC50 [7]: < 0.368 µM (active)
IC50 [8]: > 20 µM (inactive)

CCOCCCNC(=O)/C(C#N)=C/c1ccc([N+](=O)[O-])o1
AC50 [9]: 5.62 µM (active)
IC50 [10]: 149 µM (active)
IC50 [11]: 4.79 µM (active)
EC50 [12]: 4.2 µM (active)
CC50 [13]: 96.6 µM (active)
EC50 [14]: 3.08 µM (active)

Cc1ccc(-c2nc3ncccc3o2)cc1NC(=O)CC(C)C
IC50 [15]: > 80 µM (inactive)
IC50 [16]: > 80 µM (inactive)
IC50 [17]: > 80 µM (inactive)

Cc1cc(C(=O)N2CCN(c3ccc([N+](=O)[O-])cc3)CC2)co1
EC50 [6]: > 53 µM (inactive)
IC50 [7]: 36.1 µM (active)
IC50 [8]: > 20 µM (inactive)

Cc1cc(C)n(-c2ccc(Cl)c(C(=O)Nc3cc(C(F)(F)F)ccc3Cl)n2)n1
EC50 [18]: 5.21 µM (inactive)
EC50 [19]: 0.24 µM (inactive)

COc1cc2nc(S)nc(NCCc3ccc(S(N)(=O)=O)cc3)c2cc1OC
CC50 [13]: 100 µM (active)

CCN(/N=C/C=C/c1ccccc1)c1cc(=O)n(C)c(=O)[nH]1
IC50 [20]: 155 µM (inactive)
EC50 [21]: > 260 µM (inactive)
IC50 [22]: 13.1 µM (not active)

Sc1nnc(C2CCCCC2)n1/N=C/c1ccccc1Cl
IC50 [20]: 155 µM (inactive)

Source: ChEMBL document CHEMBL1201862, “PubChem BioAssay data set” (2004)
